Test results from patent publication US20240166624A1, “PPARG INVERSE AGONISTS AND USES THEREOF” (Flare Therapeutics Inc., priority 2021, published 2024).

Experiments:
[1] = molecular target: T1, PPARG/RXRA LBD heterodimer (Homo sapiens, UniProt P37231); test: PPARγ-NCOR1 recruitment assay (TR-FRET, biotinylated NCOR1 ID2 peptide); format: biochemical; conditions: 80 nM Rosiglitazone, 3 hours, read-out: PPARG-NCOR recruitment assay EC50
T1 construct: His-TEV-Q203-Y477; Uniprot ID P37231-2; made in house; host or cells: E. coli
Method: PPARγ-NCOR1 Recruitment Assay:
Compound potency (EC50) and maximal extent of NCOR1 recruitment to PPARG were assessed a TR-FRET binding assay measuring association of a biotinylated NCOR1 ID2 peptide (Biotin-[…]-amide) to PPARG/RXRA LBD heterodimer. Specifically, a 20 microliters of TR-FRET master mix consisting of 2 nM WT PPARG LBD (E. coli expressed, His-TEV-Q203-Y477; Uniprot ID P37231-2), 2 nM WT RXRA LBD or mutant S427F RXRA LBD (E. coli expressed, Flag-TEV-E228-T462; […]. Mixtures were incubated for 3 hours and read in an EnVision plate reader (Perkin Elmer) with Ex/Em 615/665. To determine the potency (EC50) and extent of NCOR1 recruitment, TR-FRET ratios were normalized to the average ratio of DMSO control wells (0%) and to the average maximum ratio for positive control compound (T0070907 (2-chloro-5-nitro-N-4-pyridinyl-benzamide); defined as 100%) in CDD Vault and analyzed using the Levenberg-Marquardt algorithm.
T1 sequence (O75376 2251-2273 partner, one chain of several): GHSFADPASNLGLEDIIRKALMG

[2] = molecular target: T2, PPARG/RXRA LBD heterodimer (Homo sapiens, UniProt P37231); test: PPARγ-MED1 blockade assay (TR-FRET, biotinylated MED1 LxxLL peptide); format: biochemical; conditions: WT PPARG LBD/WT RXRA LBD, 80 nM Rosiglitazone, 3 hours
T2 construct: His-TEV-Q203-Y477; Uniprot ID P37231-2; made in house; host or cells: E. coli
T2 sequence (P37231 203-477 isoform P37231-2): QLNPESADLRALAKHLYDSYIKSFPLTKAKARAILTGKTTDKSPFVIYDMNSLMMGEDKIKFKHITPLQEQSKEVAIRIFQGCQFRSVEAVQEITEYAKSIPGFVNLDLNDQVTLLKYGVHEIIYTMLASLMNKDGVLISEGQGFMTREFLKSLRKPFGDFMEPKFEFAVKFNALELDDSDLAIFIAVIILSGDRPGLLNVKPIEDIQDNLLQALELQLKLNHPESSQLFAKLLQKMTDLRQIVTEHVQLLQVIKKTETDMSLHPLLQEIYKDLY
T2 sequence (P19793 228-462 partner limits assumed): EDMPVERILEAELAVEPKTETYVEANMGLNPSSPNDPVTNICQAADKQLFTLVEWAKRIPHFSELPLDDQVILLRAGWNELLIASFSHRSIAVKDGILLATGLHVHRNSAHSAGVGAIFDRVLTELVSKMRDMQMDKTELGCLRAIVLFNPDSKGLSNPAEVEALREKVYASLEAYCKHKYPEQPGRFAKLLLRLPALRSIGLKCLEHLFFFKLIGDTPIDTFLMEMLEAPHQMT
Method: PPARγ-MED1 Blockade Assay:
Compound potency (IC50) and maximal extent of MED1 repulsion to PPARG were assessed a TR-FRET binding assay measuring association of a biotinylated MED1 LxxLL peptide (Biotin-[…]-amide) to PPARG/RXRA LBD heterodimer. Specifically, a 20 microliters of TR-FRET master mix consisting of 2 nM WT PPARG LBD (E. coli expressed, His-TEV-Q203-Y477; Uniprot ID P37231-2), 2 nM WT RXRA LBD (E. coli expressed, Flag-TEV-E228-T462; […]. Mixtures were incubated for 3 hours and read in an EnVision plate reader (Perkin Elmer) with Ex/Em 615/665. To determine the potency (IC50) and extent of MED1 repulsion, TR-FRET ratios were normalized to the average ratio of DMSO control wells (0%) and to the average minimum ratio for positive control compound (GW9662 (2-chloro-5-nitrobenzanilide); defined as 100%) in CDD Vault and analyzed using the Levenberg-Marquardt algorithm.

[3] = tested on: ANGPTL4, a PPARG target gene, in HT1197 (RXRA S427F mutation) cells; test: Bladder cancer pharmacodynamic assay, HT1197 cell assay (qPCR of ANGPTL4); format: cell-based; conditions: Homo sapiens, 24 hours, 100 nM compound, relative to DMSO control
Method: Bladder Cancer Pharmacodynamic Assay
5637 (PPARG amplified) and HT1197 (RXRA S427F mutation) cells were used for assessment of modulation of PPARG target genes using quantitative PCR. Cells were treated for 24 hours with PPARG inverse agonists prior to analysis of FABP4 (IDT, Cat: Hs.PT 58.20106818) and ANGPTL4 (IDT, Cat: Hs.PT 58.25480012) expression, with expression of the housekeeping gene TBP (IDT, Cat: Hs.PT 58v.39858774) used to normalize expression across samples. Quantitative PCR was performed using an ABI QuantStudio 7 Flex Reaction system. Data were analyzed and reported relative to DMSO control using the comparative Ct method (ΔΔCt).

Row | SMILES | EC50 [1] [nM] | EC50 [2] [nM] | inhibition at 0.1 µM [3] [%]
1 | CC(C)(O)Cn1cc(-c2c(F)cc3[nH]c(-c4cc(C#N)ccc4Cl)cc(=O)c3c2F)cn1 [Example 48, 4-chloro-3-(5,7-difluoro-6-(1-(2-hydroxy-2-methylpropyl)-1H-pyrazol-4-yl)-4-oxo-1,4-dihydroquinolin-2-yl)benzonitrile] | 1000 to 10000 | 1000 to 10000 | 47
2 | N#Cc1ccc(Cl)c(-c2cc(=O)c3c(F)c(F)c(F)cc3[nH]2)c1 [Example 17, 4-chloro-3-(5,6,7-trifluoro-4-oxo-1,4-dihydroquinolin-2-yl)benzonitrile] | 1000 to 10000 | 1000 to 10000 | 66
3 | N#Cc1ccc(Cl)c(-c2cc(=O)c3c(F)c(-c4cc[nH]c(=O)c4)c(F)cc3[nH]2)c1 [Example 54, 4-chloro-3-(5,7-difluoro-4-oxo-6-(2-oxo-1,2-dihydropyridin-4-yl)-1,4-dihydroquinolin-2-yl)benzonitrile] | 100 to 1000 | 100 to 1000 | 20
4 | N#Cc1ccc(F)c(-c2cc(=O)c3c(F)cc(F)cc3[nH]2)c1 [Example 3, 3-(5,7-difluoro-4-oxo-1,4-dihydroquinolin-2-yl)-4-fluorobenzonitrile] | 1000 to 10000 | 1000 to 10000 | 
5 | N#Cc1ccc(Cl)c(-c2cc(=O)c3c(F)c(-c4cnn(C(F)F)c4)c(F)cc3[nH]2)c1 [Example 38, 4-chloro-3-(6-(1-(difluoromethyl)-1H-pyrazol-4-yl)-5,7-difluoro-4-oxo-1,4-dihydroquinolin-2-yl)benzonitrile] | 100 to 1000 | 100 to 1000 | 80
6 | N#Cc1ccc(Cl)c(-c2cc(=O)c3c(F)c(-c4cnn(C(F)(F)F)c4)c(F)cc3[nH]2)c1 [Example 58, 4-chloro-3-(5,7-difluoro-4-oxo-6-(1-(trifluoromethyl)-1H-pyrazol-4-yl)-1,4-dihydroquinolin-2-yl)benzonitrile] | 100 to 1000 | 100 to 1000 | 88
7 | COCCn1ccc(-c2c(F)cc3[nH]c(-c4cc(C#N)ccc4Cl)cc(=O)c3c2F)n1 [Example 72, 4-chloro-3-(5,7-difluoro-6-(1-(2-methoxyethyl)-1H-pyrazol-3-yl)-4-oxo-1,4-dihydroquinolin-2-yl)benzonitrile] | 100 to 1000 | 100 to 1000 | 79
8 | Cc1ncc(-c2c(F)cc3[nH]c(-c4cc(C#N)ccc4Cl)cc(=O)c3c2F)cn1 [Example 42, 4-chloro-3-(5,7-difluoro-6-(2-methylpyrimidin-5-yl)-4-oxo-1,4-dihydroquinolin-2-yl)benzonitrile] | 100 to 1000 | 100 to 1000 | 74
9 | CNC(=O)CCc1c(F)cc2[nH]c(-c3cc(C#N)ccc3Cl)cc(=O)c2c1F [Example 81, 3-(2-(2-chloro-5-cyanophenyl)-5,7-difluoro-4-oxo-1,4-dihydroquinolin-6-yl)-N-methylpropanamide] | 1000 to 10000 | > 10000 | 46
10 | N#Cc1ccc(Cl)c(-c2cc(=O)c3cc(F)cc(F)c3[nH]2)c1 [Example 8, 4-chloro-3-(6,8-difluoro-4-oxo-1,4-dihydroquinolin-2-yl)benzonitrile] | > 10000 | > 10000 | 
11 | N#Cc1ccc(Cl)c(-c2[nH]c3cc(F)cc(F)c3c(=O)c2F)c1 [Example 118, 4-chloro-3-(3,5,7-trifluoro-4-oxo-1,4-dihydroquinolin-2-yl)benzonitrile] | > 10000 | > 10000 | 
12 | N#Cc1ccc(Cl)c(-c2[nH]c3cc(F)cc(F)c3c(=O)c2Cl)c1 [Example 119, 4-chloro-3-(3-chloro-5,7-difluoro-4-oxo-1,4-dihydroquinolin-2-yl)benzonitrile] | > 10000 | > 10000 | 
13 | N#Cc1ccc(Cl)c(-c2cc(=O)c3cc(C#N)c(C(F)(F)F)cc3[nH]2)c1 [Example 12, 2-(2-chloro-5-cyanophenyl)-4-oxo-7-(trifluoromethyl)-1,4-dihydroquinoline-6-carbonitrile] | > 10000 | 1000 to 10000 | 
14 | N#Cc1ccc(Cl)c(-c2cc(=O)c3c(F)c(Br)c(F)cc3[nH]2)c1 [Example 33, 3-(6-bromo-5,7-difluoro-4-oxo-1,4-dihydroquinolin-2-yl)-4-chlorobenzonitrile] | 100 to 1000 | 100 to 1000 | 

Now from value to compound, other results behind:

Row | EC50 [1] [nM] | EC50 [2] [nM] | SMILES | inhibition at 0.1 µM [3] [%]
15 | 100 to 1000 | 100 to 1000 | N#Cc1ccc(Cl)c(-c2cc(=O)c3c(F)c(-c4ccc(CO)nc4)c(F)cc3[nH]2)c1 [Example 64, 4-chloro-3-(5,7-difluoro-6-(6-(hydroxymethyl)pyridin-3-yl)-4-oxo-1,4-dihydroquinolin-2-yl)benzonitrile] | 59
16 | 1000 to 10000 | 1000 to 10000 | Cc1cc2[nH]c(-c3cc(C#N)ccc3Cl)cc(=O)c2cc1C#N [Example 9, 2-(2-chloro-5-cyanophenyl)-7-methyl-4-oxo-1,4-dihydroquinoline-6-carbonitrile] | 
17 | 100 to 1000 | 100 to 1000 | CN(C)C(=O)c1cc(-c2c(F)cc3[nH]c(-c4cc(C#N)ccc4Cl)cc(=O)c3c2F)c(F)cc1F [Example 87, 5-(2-(2-chloro-5-cyanophenyl)-5,7-difluoro-4-oxo-1,4-dihydroquinolin-6-yl)-2,4-difluoro-N,N-dimethylbenzamide] | 75
18 | 1000 to 10000 | 1000 to 10000 | N#Cc1ccc(Cl)c(-c2cc(=O)c3ccccc3[nH]2)c1 [Example 13, 4-chloro-3-(4-oxo-1,4-dihydroquinolin-2-yl)benzonitrile] | 17
19 | 1000 to 10000 | 1000 to 10000 | N#Cc1ccc(Cl)c(-c2cc(=O)c3c(F)c(C4CCNCC4)c(F)cc3[nH]2)c1 [Example 94, 4-chloro-3-(5,7-difluoro-4-oxo-6-(piperidin-4-yl)-1,4-dihydroquinolin-2-yl)benzonitrile] | 27
20 | 1000 to 10000 | 1000 to 10000 | N#Cc1ccc(Cl)c(-c2cc(=O)c3c(F)c(-n4cccn4)c(F)cc3[nH]2)c1 [Example 25, 4-chloro-3-(5,7-difluoro-4-oxo-6-(1H-pyrazol-1-yl)-1,4-dihydroquinolin-2-yl)benzonitrile] | 22
21 | 100 to 1000 | 100 to 1000 | COCc1c(F)cc2[nH]c(-c3cc(C#N)ccc3Cl)cc(=O)c2c1F [Example 57, 4-chloro-3-(5,7-difluoro-6-(methoxymethyl)-4-oxo-1,4-dihydroquinolin-2-yl)benzonitrile] | 87
22 | > 10000 | 1000 to 10000 | N#Cc1ccc(Cl)c(-c2cc(=O)c3c(F)c(F)ccc3[nH]2)c1 [Example 10, 4-chloro-3-(5,6-difluoro-4-oxo-1,4-dihydroquinolin-2-yl)benzonitrile] | 
23 | 100 to 1000 | 100 to 1000 | N#Cc1ccc(Cl)c(-c2cc(=O)c3c(F)cc(C(F)(F)F)cc3[nH]2)c1 [Example 91, 4-chloro-3-(5-fluoro-4-oxo-7-(trifluoromethyl)-1,4-dihydroquinolin-2-yl)benzonitrile] | 
